Measured values taken from patent US6794396B2, “Substituted pyridines useful for inhibiting cholesteryl ester transfer protein activity” (Pharmacia Corporation, priority 1998, dated 2004).
pIC50: −log10 of the molar value. Several values for one entry are separate records, joined by “and”; a condition that tells them apart may be missing. Identical values can stand only once.

The molecules below were run against T1, CETP (Homo sapiens, UniProt P11597) (assay: CETP activity in vitro: transfer of [3H]CE from HDL donor to LDL acceptor particles). Conditions: 10 μm.
T1 construct: made in house; host or cells: CHO cells (serum-free conditioned medium)
T1 sequence (P11597 18-493): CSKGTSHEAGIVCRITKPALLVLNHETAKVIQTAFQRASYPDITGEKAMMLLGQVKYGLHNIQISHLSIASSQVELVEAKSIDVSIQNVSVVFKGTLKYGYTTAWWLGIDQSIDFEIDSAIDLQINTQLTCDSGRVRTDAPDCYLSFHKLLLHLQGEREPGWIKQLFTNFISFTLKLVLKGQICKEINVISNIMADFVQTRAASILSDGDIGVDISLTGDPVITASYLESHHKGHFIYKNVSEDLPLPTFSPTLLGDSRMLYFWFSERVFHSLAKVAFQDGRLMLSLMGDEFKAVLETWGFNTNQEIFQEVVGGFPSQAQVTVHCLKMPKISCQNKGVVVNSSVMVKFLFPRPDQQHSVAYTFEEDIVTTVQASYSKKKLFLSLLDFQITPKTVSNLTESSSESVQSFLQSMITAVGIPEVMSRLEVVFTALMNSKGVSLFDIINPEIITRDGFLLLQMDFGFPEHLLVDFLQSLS
Assay type: biochemical
Protocol: The ability of compounds to inhibit CETP were assessed using an in vitro assay that measured the rate of transfer of radiolabeled cholesteryl ester ([^3H]CE) from HDL donor particles to LDL acceptor particles. Details of the assay are provided by Glenn et al. (“Quantification of Cholesteryl Ester Transfer Protein (CETP): A) CETP Activity and B) Immunochemical Assay of CETP Protein,” Meth. Enzymol., Glenn and Melton (Meth. Enzymol., 263, 339-351 (1996), which is incorporated herein by reference). CETP was obtained from the serum-free conditioned medium of CHO cells transfected with a cDNA for CETP (Wang, S. et al. J. Biol Chem. 267, 17487-17490 (1992), which is incorporated herein by reference).
To measure CETP activity, [^3H]CE-labeled HDL, LDL, CETP and assay buffer (50 mM tris(hydroxymethyl)amino-methane, pH 7.4; 150 mM sodium chloride; 2 mM ethylenediamine-tetraacetic acid; 1% bovine serum albumin) were incubated in a volume of 200 μl, for 2 hours at 37° C. in 96 well plates. LDL was differentially precipitated by the addition of 50 μl of 1% (w/v) dextran sulfate/0.5 M magnesium chloride, mixed by vortex, and incubated at room temperature for 10 minutes The solution (200μl) was transferred to a filter plate (Millipore). After filtration, the radioactivity present in the precipitated LDL was measured by liquid scintillation counting.
This value was defined as the IC50.

SMILES | % transfer at 10 μm
CCOC(C)Sc1c(C(F)(F)F)nc(C(F)F)c(C(=O)OC)c1CC(C)C (centres unmarked) [Compound 146, Methyl 2-(Difluoromethyl)-5-(1-ethoxyethylthio)-4-(2-methylpropyl)-6-(trifluoromethyl)-3-pyridinecarboxylate] | 67^D %
COC(=O)c1c(C(F)F)nc(C(F)(F)F)c(SC(C)OC)c1CC(C)C (centres unmarked) [Compound 147, Methyl 2-(Difluoromethyl)-4-(2-methylpropyl)-5-(1-methoxyethylthio)-6-(trifluoromethyl)-3-pyridinecarboxylate] | 15^D %
COC(=O)c1c(C(F)F)nc(C(F)(F)F)c(SCCF)c1CC(C)C [Compound 148, Methyl 2-(Difluoromethyl)-5-(2-fluoroethylthio)4-(2-methylpropyl)-6-(trifluoromethyl)-3-pyridinecarboxylate] | 32^D %
COC(=O)c1c(C(F)F)nc(C(F)(F)F)c(SC(C)=O)c1CC(C)C [Compound 149, Methyl 5-(Acetylthio)-2-(difluoromethyl)-4-(2-methylpropyl)-6-(trifluoromethyl)-3-pyridinecarboxylate] | 31^D %
COC(=O)c1c(C(F)F)nc(C(F)(F)F)c(SC2CCCO2)c1CC(C)C (centres unmarked) [Compound 150, Methyl 2-(Difluoromethyl)-4-(2-methylpropyl)-5-[(tetrahydro-2-furyl)thio]-6-(trifluoromethyl)-3-pyridinecarboxylate] | 95^D %

Same assay, conditions: 50% inhibition of [3H]CE transfer from HDL to LDL, 2 hours at 37° C.; read-out: IC50(μm)

SMILES | pIC50
CCOC(=O)c1c(C(F)(F)F)nc(C(F)(F)F)c(C#N)c1OCC [Compound 64] | 4.22
COC(=O)c1c(C(F)F)nc(C(F)(F)F)c(C(=O)OC)c1Cc1ccnc(SC)n1 [Compound 67, Dimethyl 2-(Difluoromethyl)-4-{[(2-methylthio)pyrimidin-4-yl]methyl}-6-(trifluoromethyl)-3,5-pyridinedicarboxylate] | 4.22
COC(=O)c1c(C(F)F)nc(C(F)(F)F)c(C(N)=S)c1CC(C)C [Compound 77, Methyl 2-(Difluoromethyl)-4-(2-methylpropyl)-5-(aminothionocarbonyl)-6-(trifluoromethyl) -3-pyridinecarboxylate] | 4.15
COC(=O)c1c(C(F)F)nc(C(F)(F)F)c(CSC(=O)N(C)C)c1CC(C)C [Compound 79] | 4.12
COC(=O)c1c(C(F)F)nc(C(F)(F)F)c(CCl)c1CC(C)C [Compound 83, Methyl 5-Chloromethyl-2-(difluoromethyl)-4-(2-methylpropyl)-6-(trifluoromethyl)-3-pyridinecarboxylate] | 4.10
CCOP(=O)(OCC)C(=O)c1c(C(F)(F)F)nc(C(F)F)c(C(=O)OC)c1NC(C)C [Compound 85, Methyl 5-[(Diethoxyphosphinyl)carbonyl]-2-(difluoromethyl)-4-(1-methylethylamino)-6-(trifluoromethyl)-3-pyridinecarboxylate] | 4.05
COC(=O)c1c(C(F)F)nc(C(F)(F)F)c(C(=O)Oc2cccc(OC)c2)c1CC(C)C [Compound 165, 3-Methyl 5-(3-Methoxyphenyl) 2-(Difluoromethyl)-4-(2-methylpropyl)-6-(trifluoromethyl)-3,5-pyridicarboxylate] | < 4.00 and 4.15
COC(=O)c1c(C(F)F)nc(C(F)(F)F)c(C(=O)Oc2ccc(C(C)(C)C)cc2C(C)(C)C)c1CC(C)C [Compound 168, 3-Methyl 5-(2,4-Di-t-butylphenyl) 2-(Difluoromethyl)-4-(2-methylpropyl)-6-(trifluoromethyl)-3,5-pyridicarboxylate] | 4.22
COC(=O)c1c(C(F)F)nc(C(F)(F)F)c(C(=O)Oc2ccc(C(C)C)cc2Cc2ccc(F)cc2)c1CC(C)C [Compound 170, 3-Methyl 5-[2-(4-Fluorobenzyl)-4-isopropylphenyl]2-(Difluoromethyl)-4-(2-methylpropyl)-6-(trifluoromethyl)-3,5-pyridicarboxylate] | 4.40

Same assay, conditions: 100 μm

SMILES | % Transfer @ 100 μm
COC(=O)c1c(C(F)F)nc(C(F)(F)F)c(SCC(N)=O)c1CC(C)C [Compound 145] | 64%

Same assay, conditions: 2 h, read-out: % Transfer @ 100 μm

SMILES | remaining activity at 100 µM
COC(=O)c1c(C(F)F)nc(C(F)(F)F)c([S+]([O-])CCCl)c1CC(C)C (centres unmarked) [Compound 111, Methyl 5-(Chloroethylsulfinyl)-2-(difluoromethyl)-4-(2-methylpropyl)-6-(trifluoromethyl)-3-pyridinecarboxylate] | 78%

Same assay, conditions: 2 h; read-out: % Transfer @ 100 μm

SMILES | remaining activity at 100 µM
CCOC(=O)c1c(C(F)(F)F)ncc(C(=O)OC(C)C)c1O [Compound 101, 3-Ethyl 5-Isopropyl 4-hydroxy-2-(trifluoromethyl)-3,5-pyridinedicarboxylate] | 71%
COC(=O)c1c(C(F)F)nc(C(F)(F)F)c(C2CC(C)N(O)C2)c1CC1CC1 (centres unmarked) [Compound 107, Methyl 4-(Cyclopropylmethyl)-2-(difluoromethyl)-5-(1-hydroxy-5-methyl-3-pyrrolidinyl)-6-(trifluoromethyl)-3-pyridinecarboxylate] | 75%
CCOC(=O)c1cnc(C(F)(F)F)c(Oc2ccccc2)c1O [Compound 109, Ethyl 4-Hydroxy-5-phenoxy-6-(trifluoromethyl)-3-pyridinecarboxylate] | 76%
COC(=O)c1c(C(F)F)nc(C(F)(F)F)c(-c2ncco2)c1CC(C)C [Compound 110, Methyl 2-(difluoromethyl)-4-(2-methylpropyl)-5-(2-oxazolyl)-6-(trifluoromethyl)-3-pyridinecarboxylate] | 76%
COC(=O)c1c(C(F)F)nc(C(F)(F)F)c(C(=N)SC)c1CC1CC1 [Compound 112, Methyl 4-(Cyclopropylmethyl)-2-(difluoromethyl)-5-[imino(methylthio)methyl]-6-(trifluoromethyl)-3-pyridinecarboxylate] | 78%
CCOC(=O)c1cnc(C(F)(F)F)c(OCC)c1O [Compound 114, Ethyl 5-Ethoxy-4-Hydroxy-6-(trifluoromethyl)-3-pyridinecarboxylate] | 81%
COC(=O)c1c(C(F)F)nc(C(F)(F)F)c(NC(=O)c2sc(Cl)nc2C(F)(F)F)c1CC(C)C [Compound 117, Methyl {-[2-Chloro-4-(trifluoromethyl)-5-thiazolyl]carbonylamino}-2-(difluoromethyl)-4-(2-methylpropyl)-6-(trifluoromethyl)-3-pyridinecarboxylate] | 83%
COC(=O)c1c(C(F)F)nc(C(F)(F)F)c(C(N)=S)c1C1CCC1 [Compound 119, Methyl 5-(aminothioxomethyl)-4-(cyclobutyl)-2-(difluoromethyl)-6-(trifluoromethyl)-3-pyridinecarboxylate] | 84%
Cc1c(C(F)(F)F)ncc(C(=O)O)c1Sc1ccc(C(C)C)cc1 [Compound 126, 4-(4-Isopropylphenylthio)-5-methyl-6-(trifluoromethyl)-3-pyridinecarboxylic Acid] | 90%
COC(=O)c1c(OC(C)C)ccnc1C(F)(F)F [Compound 127, Methyl 4-(1-Methylethoxy)-2-(trifluoromethyl)-3-pyridinecarboxylate] | 90%

Same assay, conditions: IC50(μm), 50% inhibition of [3H]CE transfer from HDL to LDL, 2 hours at 37° C.

SMILES | pIC50
COC(=O)c1c(C(F)F)nc(C(F)(F)F)c(C2SCCS2)c1CC(C)C [Compound 61] | 4.22
CCCc1c(C(=O)OC)c(C(F)F)nc(C(F)(F)F)c1C(=O)SCC [Compound 62] | 4.22
CCSc1c(C(F)(F)F)nc(C(F)F)c(C(=O)OC)c1C1CCC1 [Compound 66] | 4.22
COC(=O)c1c(C(F)F)nc(C(F)(F)F)c(C(=O)SC)c1CC(C)C [Compound 69] | 4.19
COC(=O)c1c(C(F)F)nc(C(F)(F)F)c(-n2cccc2)c1C1CCC1 [Compound 70, Methyl 2-(Difluoromethyl)-4-cyclobutyl-5-(1-pyrrolyl)-6-(trifluoromethyl)-3-pyridinecarboxylate] | 4.19
COC(=O)c1c(C(F)F)nc(C(F)(F)F)c(C(=O)Sc2ccccc2C(C)C)c1CC(C)C [Compound 157, Methyl 2-(Difluoromethyl)-4-(2-methylpropyl)-5-{[(2-isopropylphenyl)thio]carbonyl}-6-(trifluoromethyl)-3-pyridinecarboxylate] | 4.22
